Broadly, the IC50 is the midpoint of a concentration-inhibition curve. Higher therefore signals lower potency.

For assay [1], the system named is guinea pig ileum. In words: Spontaneous motility (twitches) of guinea pig ileum strips. As to conditions: reference toxins 10 nM; mokatoxin-1 1-100 nM.
Assay [2] relates to guinea pig ileum. As to conditions: J Pharmacol Exp Ther. 1999; cited from earlier work.
Assay [3] concerns the target Kv1.3 (Homo sapiens, UniProt P22001). Description: Phage panning on live cells (HEK, COS) expressing Kv1.3 channels. Type of assay: binding. Set-up: expressed in transfected cells; host or cells: HEK (HEK293) and COS cells. As to conditions: for enrichment of KTX, Kv1.3 transfected vs. vector cells: 5×10^11 phagemids; for OUTPUT KTX (%): mixture of KTX and nonspecific phages, one round of panning. The source says: In another example, receptors may be expressed in cells. For example, cells may be stably or transiently transfected with one or more receptors can be utilized as expressed in native tissues (Clackson and Lowman, Phage display. Oxford University Press, 2004; Barbas et al., Phage display. A laboratory manual. Cold Spring Harbor Laboratory Press, 2001; Sambrook et al., Molecular Cloning: A Laboratory Manual. Vols 1-3. Cold Spring Harbor Laboratory Press, 1989). In one example, HEK (mammalian human embryonic kidney) and COS cells expressing wild-type Kv1.3 or Kv1.3-PDZ domain chimera were employed, the latter target allowing a “double” panning (e.g., as a control or to enhance binding affinity) using phages expressing kaliotoxin-1 and/or PDZ-binder domain.
Panning may be performed by the binding of ligands to the receptors, followed by washes and ligand recovery. In one example, panning is performed according to standard methods of phage display (Clackson and Lowman, Phage display. Oxford University Press, 2004; Barbas et al., Phage display. A laboratory manual. Cold Spring Harbor Laboratory Press, 2001). Panning may be repeated until the desired enrichment is achieved. In addition, libraries can be pre-depleted on surfaces or cells that contain no receptors or on a receptor where the putative ligand receptor domain may be directly or indirectly altered. Additionally, any and all conditions of panning may be varied, altered or changed to achieve optimal results, such as the isolation of a specific ligand. Panning variations include, but are not limited to, the presence of competing ligand(s), presence of excess target(s), length and temperature of binding, pre-absorption of the ligand library on one or more different receptor(s) or cells or surfaces, composition of binding solution (e.g., ionic strength), stringency of washing, and recovery procedures. Phages recovered from panning may be processed for further rounds of panning, functional analysis, and/or sequencing/genotyping to deduce the resulting ligands' amino acid sequence or biological properties (Clackson and Lowman, Phage display. Oxford University Press, 2004; Barbas et al., Phage display. A laboratory manual. Cold Spring Harbor Laboratory Press, 2001).
5×10^11 phagemids were added to the cell cultures in “B.”
A library of KTX-like ligands, with a calculated diversity of greater than 11,000, was created de novo. The library comprised approximately 8% KTX-like ligands and 92% non-KTX-like ligands. The library of ligands was screened on Kv1.3 receptors expressed in HEK and COS cells.
Transfection efficiency was monitored with cotransfection of gene encoding for the green fluorescence protein (GFP) and observing the fluorescence after 1-2 days following transfection.
KTX and mokatoxin-1 are Kv1.3 specific scorpion toxins. […] Following incubation of the cells with the phages, cells were subjected to wash to remove the unbound/weakly bound phages. The remaining bound phages were eluted from the cells and transformed into XL1 E. coli, and plated onto LB plates with antibiotic selecting for the phagemids.

The target of assay [4] is T1, Kv1.2 (Rattus norvegicus, UniProt P63142).
T1 construct: expressed in transfected cells; host or cells: Xenopus laevis oocytes (cRNA injection)
T1 sequence (P63142 whole entry): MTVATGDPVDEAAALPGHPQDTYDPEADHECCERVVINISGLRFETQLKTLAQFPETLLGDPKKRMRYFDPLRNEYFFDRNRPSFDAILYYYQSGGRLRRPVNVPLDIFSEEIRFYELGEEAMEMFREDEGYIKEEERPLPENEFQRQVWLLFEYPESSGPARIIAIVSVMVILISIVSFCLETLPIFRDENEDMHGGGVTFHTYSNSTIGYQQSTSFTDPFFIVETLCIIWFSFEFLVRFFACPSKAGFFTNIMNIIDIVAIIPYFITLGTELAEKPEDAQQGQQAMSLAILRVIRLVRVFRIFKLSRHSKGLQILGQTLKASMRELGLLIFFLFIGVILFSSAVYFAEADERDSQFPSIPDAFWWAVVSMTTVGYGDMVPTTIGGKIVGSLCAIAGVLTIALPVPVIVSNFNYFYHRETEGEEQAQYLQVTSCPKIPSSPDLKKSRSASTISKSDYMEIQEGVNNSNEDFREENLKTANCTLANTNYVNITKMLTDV
Description: Two electrode voltage clamp, Xenopus oocytes, Kv1.2. Type of assay: cell-based. The method, then: To examine the effect of mokatoxin-1 on activity of potassium ion channels, cDNA encoding Rattus Kv1.1 (NCBI accession number NM_173095), Rattus Kv1.2 (NM_012970), Homo Kv1.3 (NM_002232), or Mus BK (NM_010610) were subcloned into oocyte expression vectors based on PCR3.1 and pGEM. cRNA synthesis was performed with T7 polymerase and the mMessageMachine Kit (Ambion, Austin, Tex.) according to manufacturers instructions. cRNA concentrations were determined spectroscopically. For two electrode voltage clamp recordings oocytes were extracted from Xenopus laevis and defoliculated with Collagenase Type 2 (Worthington, Lakewood, N.J.). Oocytes were maintained in ND91 solution containing 2 mM KCl, 91 mM NaCl, 1 mM MgCl2, 1.8 mM CaCl2, and 5 mM HEPES, pH 7.5, supplemented with 1% Penicillin/Streptomycin (Cellgro, Hemdon, Va.) and 0.1% Gentamycin sulfate (Gibco, Grand Island, N.Y.)) at 16° C. Stage V and VI oocytes were injected with 8 pg to 4 ng cRNA, and currents recorded 1 to 4 days later.
For dose-response measurements of toxin block of Kv1.1, Kv1,2, or Kv1.3 peak currents were recorded during a 500 ms step to 0 mV from a holding voltage of −100 mV, followed by a 200 ms step to −135 mV every 30 s. To determine the kinetics of toxin block oocytes were held at −100 mV and stepped to the test voltage of 0 mV for 100 ms followed by a 200 ms duration step to −135 mV every 2 s. BK currents were recorded during a 50 ms step to +60 mV from a holding voltage of −80 mV, followed by a 40 ms step to −100 mV every 3 s. The perfusion solution contained 2 mM KCl, 96 mM NaCl, 1 mM MgCl2, 1.8 mM CaCl2, 5 mM HEPES, pH 7.5 and 0.1% fatty acid ultra-free BSA fraction V (Roche Diagnostics Corporation, Indianapolis, Ind.). Data acquisition and processing was performed with an oocyte clamp OC-725B (Warner Instruments Corporation, Hamden, Conn.), pCLAMP (Axon, Sunnyvale, Calif.), IGOR Pro (WaveMetrics, Lake Oswego, Oreg.), and Origin6.1 (OriginLab Corporation, Northampton, Mass.) softwares. The equilibrium dissociation rates (KD) for block of Kv1.1, Kv1.2, and Kv1.3 by mokatoxin-1 were determined by fitting the dose-response data and kon and koff were calculated as described by Goldstein and Miller, 1993 (Biophys J. 1993 65 (4):1613-1619).
(In two-electrode clamp one electrode senses voltage and the other passes current.)

The test system of assay [5] is antiserum to sarafotoxin s6b (anti-S6b). Description: Phage panning on immobilized antiserum to sarafotoxin s6b. To be noted: mixture of five ligands, one round of panning. Type of assay: binding. An excerpt: A mixture of five ligands: (1) kaliotoxin-1; (2) sarafotoxin s6b; (3) Dendroaspis natriuretic peptide (DNP); (4) fasciculin-2; and (5) camel antibody (CVHH); were mixed and panned on purified receptors (KcsA-Kv1.3). The control was immobilized antiserum to sarafotoxin s6b (anti-S6b). Input and output ligands were verified by genotyping. In this system, shown in Table 6, a 3.6-fold enrichment is seen after one-round of panning.

For assay [6], the system named is KcsA-Kv1.3. Description: Phage panning on purified immobilized KcsA-Kv1.3 (KcsA-1.3). Type of assay: binding. As to conditions: mixture of five ligands.
Setting [7] is: HEK cells, kaliotoxin-1-phage 1 out of 10^10 phage.

Sequence of Kv1.3 (P22001 whole entry): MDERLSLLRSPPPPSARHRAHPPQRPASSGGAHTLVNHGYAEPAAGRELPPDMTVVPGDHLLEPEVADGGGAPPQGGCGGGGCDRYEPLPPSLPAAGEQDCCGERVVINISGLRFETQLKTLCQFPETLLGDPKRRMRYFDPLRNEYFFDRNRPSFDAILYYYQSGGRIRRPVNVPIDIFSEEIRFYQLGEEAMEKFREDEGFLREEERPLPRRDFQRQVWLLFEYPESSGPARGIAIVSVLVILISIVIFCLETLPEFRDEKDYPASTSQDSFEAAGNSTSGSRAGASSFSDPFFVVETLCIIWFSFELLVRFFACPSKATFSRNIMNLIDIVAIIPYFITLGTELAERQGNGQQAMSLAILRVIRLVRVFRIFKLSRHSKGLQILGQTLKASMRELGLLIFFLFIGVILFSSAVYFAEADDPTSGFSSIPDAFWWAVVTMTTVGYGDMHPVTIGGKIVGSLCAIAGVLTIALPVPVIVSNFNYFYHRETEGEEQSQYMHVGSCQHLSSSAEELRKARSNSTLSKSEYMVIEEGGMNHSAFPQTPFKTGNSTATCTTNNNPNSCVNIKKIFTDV

Consider `CC[C@H](C)[C@H](NC(=O)[C@H](CCC(=O)O)NC(=O)[C@@H](NC(=O)CN)C(C)C)C(=O)N[C@@H](CC(N)=O)C(=O)N[C@H](C(=O)N[C@@H](CCCCN)C(=O)N[C@H]1CSSC[C@@H]2NC(=O)[C@H](CCCCN)NC(=O)CNC(=O)[C@H](Cc3ccccc3)NC(=O)[C@H](CCCNC(=N)N)NC(=O)[C@H](CCSC)NC(=O)CNC(=O)[C@H](C)NC(=O)[C@H](CC(=O)O)NC(=O)[C@H](CCCCN)NC(=O)[C@@H]3CSSC[C@@H](C(=O)N[C@H](C(=O)N4CCC[C@H]4C(=O)N[C@@H](CCCCN)C(=O)O)[C@@H](C)O)NC(=O)[C@H](Cc4c[nH]cn4)NC(=O)[C@H](CSSC[C@H](NC(=O)[C@H](CCC(N)=O)NC(=O)[C@@H]4CCCN4C(=O)[C@H](CO)NC(=O)CNC(=O)[C@H](CO)NC1=O)C(=O)N[C@@H](CC(C)C)C(=O)N[C@@H](CCCCN)C(=O)N1CCC[C@H]1C(=O)N3)NC(=O)[C@H](CCCCN)NC(=O)[C@H](CCCNC(=N)N)NC(=O)[C@H](CC(N)=O)NC(=O)[C@H](CCSC)NC2=O)C(C)C` [KTX, kaliotoxin-1], for which the “induction of twitches in ileum strips” value in assay [1] is given as “induced twitches”. Besides, the ileum contractions result in assay [2] was “contractions”. In addition, the “enrichment of KTX, Kv1.3 transfected vs. vector cells” value in assay [3] (COS cells) was around 10 fold; in assay [3] (HEK cells), around 20 fold. In assay [3] (setting [7]), the “2nd round (n = 20) %” value was 0%. Further, the “3rd round (n = 12) %” value in assay [3] (setting [7]) is 58%. Also, the “OUTPUT KTX (%)” value in assay [3] (input ratio 1/99, actual 5/95 (n = 20)) was 26 (n = 20) %; in assay [3] (input ratio 10/90, actual 0/100 (n = 10)) it was 22 (n = 18) %; in assay [3] (input ratio 10/90, actual 7/93 (n = 30)), 30 (n = 30) %. In assay [4], this compound displayed a half-inhibitory concentration (IC50) of 1.4 nM. Further, in assay [4] (rKv1.2), the “Koff [s]^−1” value was 0.21 ± 0.01 [s]^−1. Besides, the “Kon [M · s]^−1” value in assay [4] (rKv1.2) was 13 · 10^6 ± 3 · 10^6 [M · s]^−1. Besides, the “Output (% Ligands) Anti-S6b (n = 20)” value in assay [5] is 0%. The “enrichment after one round of panning” value in assay [6] is on record as 3.6 fold. In addition, the “Output (% Ligands) KcsA-Kv.13 (n = 20)” value in assay [6] (one round of panning) is given as 100%.

Source of the values: patent publication US8716437B2 (priority 2007, dated 2014).
